Measurements taken from US20250057928A1, “VACCINE COMPOSITION FOR INDUCING ANTI-IL-23 ANTIBODY” (OSAKA UNIVERSITY, priority 2021, published 2025).
Where no end group is shown, it is not given here.

How the values were obtained:
epitope peptide = experiment: Antibody titer (GMT) of serum of hairless rats, ELISA; assay type: in vivo, rat; conditions: 1 mg/body intradermal 3 times at two-week intervals, serum at 6 weeks
Protocol: AJP001 conjugated peptide having one of the B cell epitope sequences of SEQ ID NOs: 1-5 was dissolved in physiological saline and intradermally administered twice to BALB/c mice (female, 6-week-old, N=5-6) at 0.5 mg/body at 2-week intervals. Blood was collected before administration and 5 weeks after the initial administration, and the antibody titer against each AJP001 conjugated peptide and the binding ability to recombinant mouse IL-23 protein (rmIL-23) were measured by the ELISA method. Specifically, a 96-well plate immobilized with an epitope peptide dissolved at 10 μg/mL in carbonate buffer was blocked with 5% skim milk/PBS, and then serum serially diluted with 5% skim milk/PBS was added, and the mixture was left standing at 4° C. overnight. […] After washing the wells with PBS-T, TMB solution (SIGMA) was added, the wells were allowed to stand for 30 min in the dark, the reaction was stopped by adding 0.5M H2SO4, and the absorbance at 450 nm was measured using a plate reader. The serum dilution rate that gave 1/2 (OD=1.75) of the maximum absorbance was defined as the antibody titer, and the geometric mean titer: GMT was calculated from the individual values. Binding to IL-23 protein was measured by the ELISA method in the same manner as the antibody titer, using rmIL-23 (Antibodies-online GmbH) as the solid-phased antigen and goat serum for blocking. […]

[1] = system: recombinant human IL-23 protein (rhIL-23); experiment: Binding of mouse antiserum to rhIL-23, ELISA; conditions: antiserum of BALB/c mice, 1 mg/body 3 times, no adjuvant; 6 weeks
Protocol: AJP001 conjugated peptide (SEQ ID NOs: 6-37) was dissolved in physiological saline, mixed with an equal amount of 2% Alhydrogel (invivogen), and this was intradermally administered to BALB/c mice (female, 6-week-old, N=5-6) at 0.5 mg/body 3 times at two-week intervals. Blood was collected before administration and at the time point of 6 weeks after initial administration, and the antibody titer (GMT) to each epitope sequence and binding ability to recombinant human IL-23 protein (rhIL-23) (Peprotech) were measured by the ELISA method (same method as in Example 1). The binding to rhIL-23 was evaluated by a binding ratio to normal serum by calculating the ratio of the absorbance of a well added with normal mouse serum to the absorbance of a well added with antiserum derived from a mouse administered with each AJP001 conjugated peptide (SEQ ID NOs: 6-37). In addition, the neutralization activity of mouse antiserum was evaluated using an action on IL-17 production in rhIL-23 stimulated mouse splenocyte as an index. The spleen of normal BALB/c mouse (female, 5-week-old, N=3) was triturated using a syringe barrel and a cell strainer and washed with and suspended in HBSS (−). Erythrocytes were then removed using ACK Buffer (Thermo fisher scientific), and splenocytes were isolated. The splenocytes were prepared to 2.5×10^6 cells/mL with 10% FBS/1% penicillin/streptomycin/4 ng/mL rmIL-2-containing RPMI1640 medium (culture medium), and seeded in a 96 well plate at 100 μl/well. The antiserum (final concentration 15-fold) of the mice administered with each AJP001 conjugated peptide and rhIL-23 (final concentration 10 ng/ml) were added to the culture medium, reacted at 37° C. for 2 hr, added at 100 μL/well to a 96-well plate seeded with splenocytes, and cultured for 3 days in a 37° C./5% CO2 incubator. An untreated well and a control well to which normal mouse serum and rhIL-23 were added were provided. IL-17A/F in the culture supernatant was measured using Mouse IL-17A/F ELISA kit (R&D systems), the proportion (%) of IL-17 to normal serum was calculated from the IL-17 concentrations of untreated well (A), control well (B), and well (C) to which antiserum of the mice administered with each AJP001 conjugated peptide was added and according to the following formula, and the neutralization activity was evaluated.
AJP001 conjugated peptide (SEQ ID NO: 6) was dissolved in physiological saline and intradermally administered to BALB/c mice (female, 6-week-old, N=6) at 1 mg/body 3 times at two-week intervals, and blood was collected every 2 weeks until 8 weeks. The antibody titer (GMT) of all the collected sera and the binding ability to rhIL-23 of the serum at 6 weeks were measured by the ELISA method. In FIG. 5, “*” means P<0.05.

Row | binding ability to rhIL-23 [1] | Substance | antibody titer (GMT) (epitope peptide)
1 | – | SEQ ID NO 2: AJP001-Ahx-B cell epitope peptide conjugate; epitope SSSQQWQR (mouse 152-159) (not fully specified (N-terminus); listed as Mus musculus) | increase
2 | confirmed | SEQ ID NO 6: AJP001-Ahx-B cell epitope peptide conjugate; epitope SPSQPWQR (human 151-158) (not fully specified (N-terminus); listed as Homo sapiens) | –
